Data reported in article PMC9401600 (Chemmedchem, 2022).

How the values were obtained:
C. elegans strain CL2006 = assay: Locomotion assay (motor index); assay type: in vivo, Caenorhabditis elegans; details: CL2006 worms, 0.001-1 μM, chronic treatment, compared with UNC0638
Description: One of the best‐characterized transgenic AD strains in C. elegans is the CL2006 strain, which contains the Punc‐54::Aβ1–42 transgene, showing a progressive adult‐onset paralysis. Then, to establish a dose‐response profile, the pharmacological impact of G9a inhibition was evaluated in a locomotion assay with this C. elegans strain. We performed a motility assay where animals were placed in the center of a seeded plate and allowed to explore the environment freely. […] N2 (WT), and CL2006 strain were treated with dimethyl sulfoxide (DMSO) 1 %, used as a vehicle, which should not cause a relevant locomotor defective phenotype. […] The motor index for each condition was calculated using the motor performance of Bristol (N2) (WT, 100 %) and the transgenic AD strain (CL2006, 0 %) animals as reference.
Locomotion assay of G9a inhibitors was assessed to obtain dose‐response profile, evaluating the impact of the pharmacology treatment in motor dysfunction presented by the transgenic strains CL2006. Nematodes were synchronized by alkaline hypochlorite treatment, and drug assay was performed as described above, except for the OP50 bacteria OD595 adjusted to 0.9, and the duration of the treatment was 5 days. N2 (WT), and the transgenic strain CL2006 were treated in liquid media for 4 days at 20 °C and 180 rpm, starting at the L1 stage. On day 5 of age, worms were transferred from the 96‐well plates onto an unseeded NGM plate for 45 minutes before starting the trial, allowing the plates to dry and worms. Locomotion assays were performed in 30 mm NGM plates, in which the whole surface of the plate was covered by OP50. 5 to 10 adult nematodes were placed in the center of a circle (with 1 cm of diameter) in the seeded 30 mm NGM plates. After 1 min, the number of animals remaining inside the circle was scored as a locomotor defect. Motor behavior assays were run in triplicates (n=3), with a total of at least 100 animals tested per compound concentration. Motor index establishes a score where treated animals showing the same motor defect as CL2006 have an index of 0 %. […] All the results shown in the figures are calculated using the following formula: Motorindex(%)=(LDCL2006vehicle-LDCL2006drug)/(LDCL2006vehicle-LDWTvehicle)×100 LD=locomotiondefective

G9a = biological target: T1, G9a (Homo sapiens, UniProt Q96KQ7); assay: G9a Homogeneous Assay Kit (AlphaLISA) G9a inhibition; assay type: biochemical; details: for IC50: AlphaLISA, 100 μM SAM and peptide substrate
T1 construct: purchased BPS Bioscience 52051
T1 sequence (Q96KQ7 1-1210): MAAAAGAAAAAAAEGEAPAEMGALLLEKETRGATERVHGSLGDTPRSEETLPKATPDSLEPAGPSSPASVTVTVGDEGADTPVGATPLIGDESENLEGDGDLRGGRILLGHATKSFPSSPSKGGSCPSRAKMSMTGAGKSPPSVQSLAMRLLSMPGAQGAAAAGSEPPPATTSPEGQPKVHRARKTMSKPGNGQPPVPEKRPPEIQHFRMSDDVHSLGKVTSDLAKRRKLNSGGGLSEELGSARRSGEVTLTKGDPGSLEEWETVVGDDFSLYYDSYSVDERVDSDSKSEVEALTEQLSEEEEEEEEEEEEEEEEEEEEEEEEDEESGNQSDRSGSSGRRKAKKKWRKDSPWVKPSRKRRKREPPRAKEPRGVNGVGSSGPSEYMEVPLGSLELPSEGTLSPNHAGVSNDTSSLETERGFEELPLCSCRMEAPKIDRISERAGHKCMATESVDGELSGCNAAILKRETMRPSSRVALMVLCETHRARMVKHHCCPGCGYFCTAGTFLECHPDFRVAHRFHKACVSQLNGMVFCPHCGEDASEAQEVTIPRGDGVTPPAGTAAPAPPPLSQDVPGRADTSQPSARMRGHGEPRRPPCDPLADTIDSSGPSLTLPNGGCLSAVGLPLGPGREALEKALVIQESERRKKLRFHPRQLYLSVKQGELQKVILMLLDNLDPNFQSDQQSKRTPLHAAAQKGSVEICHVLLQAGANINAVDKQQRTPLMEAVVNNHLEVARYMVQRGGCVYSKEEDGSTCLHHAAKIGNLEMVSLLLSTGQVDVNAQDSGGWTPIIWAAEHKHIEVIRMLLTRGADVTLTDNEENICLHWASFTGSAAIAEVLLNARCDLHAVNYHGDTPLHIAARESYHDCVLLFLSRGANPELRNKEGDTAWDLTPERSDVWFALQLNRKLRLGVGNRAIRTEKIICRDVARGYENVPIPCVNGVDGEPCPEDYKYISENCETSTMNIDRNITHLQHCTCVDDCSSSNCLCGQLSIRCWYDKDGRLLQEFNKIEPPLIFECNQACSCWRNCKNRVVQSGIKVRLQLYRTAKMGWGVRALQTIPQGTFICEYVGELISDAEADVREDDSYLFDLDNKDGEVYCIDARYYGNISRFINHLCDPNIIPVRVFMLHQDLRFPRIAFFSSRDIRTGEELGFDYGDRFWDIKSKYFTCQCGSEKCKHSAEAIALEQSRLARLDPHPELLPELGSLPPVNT
Description: The percentages of G9a activity for the 10 selected molecules were determined at 100 μM S‐adenosylmethionine (SAM) and peptide substrate using AlphaLISA® technology. These percentages were used to calculate the IC50.
G9a inhibitors were serially diluted between 5 nM and 0.001 nM in 100 % DMSO (Sigma, St. Louis, USA). Then, respective concentrations were subsequently diluted in MilliQ purified water to reach a final concentration ranging between 50 and 0.001 μM in 1 % DMSO in well.
Briefly, a sample containing the G9a enzyme is incubated with the biotinylated substrate plus inhibitor solution for two hours. Next, acceptor beads and primary antibody is added, followed by donor beads. Finally, the Alpha‐counts were read using an AlphaScreen microplate reader. The experiment was run per triplicate. G9aactivity(%)=(C-Cb)/(Ct-Cb)x100
Ct=The chemiluminescence reading in the absence of the compound. The data set here is defined as 100 % activity in the absence of the compound.
Cb=The chemiluminescence reading in absence of enzyme. The data set here is defined as 0 % activity in the absence of the enzyme.
C=The chemiluminescence reading in the presence of the compound.
Data analysis was conducted using GraphPad Prism ver. 9 statistical software. The statistical outliers were identified with Grubb's test and excluded from the analysis. Group comparisons were carried out with a One‐way Analysis of variance (ANOVA), followed by the Dunnett post hoc test. In some cases, comparison between groups was also performed by unpaired t‐test or One‐way ANOVA, followed by Fisher's LSD post hoc test. For the calculation of IC50, non‐linear regressions were performed. […] Values are shown as the mean ± Standard error of the mean (SEM) of at least n=3. Statistical significance was considered when p values were <0.05.

PAMPA‐BBB assay = assay type: in vitro ADME; details: pig; PAMPA‐BBB, PBS:EtOH (70 : 30); read-out: Permeability (Pe) experimental value
Description: To evaluate the brain penetration of the different compounds, a parallel artificial membrane permeation assay for BBB was used, following the method described by Di et al..[33] The in vitro Pe of fourteen commercial drugs through lipid extract of porcine brain membrane together with the test compounds were determined. Commercial drugs and assayed compounds were tested using a mixture of PBS:EtOH (70 : 30).

| Compound | remaining activity at 0.0001 µM (G9a; first data set of Table S2) | remaining activity at 0.0001 µM (G9a; second data set of Table S2) | remaining activity at 0.0001 µM (G9a; third data set of Table S2) | remaining activity at 0.001 µM (G9a; first data set of Table S2) | remaining activity at 0.001 µM (G9a; second data set of Table S2) | remaining activity at 0.001 µM (G9a; third data set of Table S2) | remaining activity at 0.01 µM (G9a; first data set of Table S2) | remaining activity at 0.01 µM (G9a; second data set of Table S2) | remaining activity at 0.01 µM (G9a; third data set of Table S2) | remaining activity at 0.1 µM (G9a; first data set of Table S2) | remaining activity at 0.1 µM (G9a; second data set of Table S2) | remaining activity at 0.1 µM (G9a; third data set of Table S2) | remaining activity at 1 µM (G9a; first data set of Table S2) | remaining activity at 1 µM (G9a; second data set of Table S2) | remaining activity at 1 µM (G9a; third data set of Table S2) | remaining activity at 10 µM (G9a; first data set of Table S2) | remaining activity at 10 µM (G9a; second data set of Table S2) | remaining activity at 10 µM (G9a; third data set of Table S2) | remaining activity at 50 µM (G9a; first data set of Table S2) | remaining activity at 50 µM (G9a; second data set of Table S2) | also measured |
| --- | --- | --- | --- | --- | --- | --- | --- | --- | --- | --- | --- | --- | --- | --- | --- | --- | --- | --- | --- | --- | --- |
| CC(C)c1nccn1C(C)C(=O)Nc1ccc(NC(=O)CN2CCCCC2)cc1 (centres unmarked) [I] | 30.9% | 29.3% | 30.1% | 24% | 22.5% | 23.2% | 13.5% | 12.8% | 13.2% | 8.2% | 9.3% | 8.7% | 6.8% | 7.3% | 7.1% | 6.6% | 5.7% | 6.2% | 5.9% | 4.8% | motor index dose‐response profile (in words) (C. elegans strain CL2006): lowest motor index in the maximum and minimum dose tested; remaining activity at 50 µM (G9a; third data set of Table S2): 5.3%; IC50 (G9a): 3.9 nM |
| Cn1ccnc1-c1ccc(NCC(c2cccnc2)N2CCOCC2)nn1 (centres unmarked) [A] | 31% | 32.1% | 31.6% | 27.8% | 30.6% | 29.2% | 22.9% | 30.7% | 26.8% | 22.8% | 22.7% | 22.7% | 14.8% | 15.1% | 15% | 10% | 11.3% | 10.6% | -0.4% | 0.9% | remaining activity at 50 µM (G9a; third data set of Table S2): 0.3% |
| CC(C)c1nccn1CCCNCc1cc(CN2CCCC2)cs1 [C] | 32.8% | 32.7% | 32.8% | 22.2% | 23.9% | 23.1% | 15.1% | 19.5% | 17.3% | 12% | 12.6% | 12.3% | 11.5% | 12.4% | 12% | 10.9% | 11.3% | 11.1% | 10.7% | 10.9% | motor index dose‐response profile (in words) (C. elegans strain CL2006): ameliorating the paralysis presented by CL2006; remaining activity at 50 µM (G9a; third data set of Table S2): 10.8%; IC50 (G9a): 1.7 nM |
| c1ccc(OCCn2ccnc2)c(CN2CCN(c3ccncc3)CC2)c1 [Compound B] | 9.3% | 10.8% | 10% | 8.7% | 11.6% | 10.1% | 3.5% | 7.3% | 5.4% | 2.1% | 5.3% | 3.7% | 1.2% | 3.8% | 2.5% | 0.9% | 1.6% | 1.2% | 0.2% | 0.6% | motor index dose‐response profile (in words) (C. elegans strain CL2006): did not show an improved performance against the motor indexes of the control UNC0638; remaining activity at 50 µM (G9a; third data set of Table S2): 0.4%; IC50 (G9a): 9.4 nM |
| CC(=O)[C@H]1CC[C@H]2[C@@H]3CCC4=CC(=O)CC[C@]4(C)[C@H]3CC[C@]12C [Progesterone, reference compound] |  |  |  |  |  |  |  |  |  |  |  |  |  |  |  |  |  |  |  |  | Papp (PAMPA‐BBB assay): 147 ± 3 nm/s |
| CN1C(C(=O)Nc2ccccn2)=C(O)c2ccccc2S1(=O)=O [Piroxicam, reference compound] |  |  |  |  |  |  |  |  |  |  |  |  |  |  |  |  |  |  |  |  | Papp (PAMPA‐BBB assay): 20 ± 0.8 nm/s |
| CCc1nccn1CCC(=O)Nc1cccc(NC(=O)CN(C)C)c1 [G] | 29.6% | 33.7% | 31.7% | 26% | 28.7% | 27.4% | 17.6% | 16.1% | 16.8% | 11.4% | 12.3% | 11.9% | 8.7% | 10.3% | 9.5% | 8.5% | 9.1% | 8.8% | 7.7% | 9.1% | motor index dose‐response profile (in words) (C. elegans strain CL2006): motor index decreased progressively as the dose decreased; remaining activity at 50 µM (G9a; third data set of Table S2): 8.4%; IC50 (G9a): 5.8 nM |
| Fc1ccccc1CN1CCC(CN(Cc2ccccn2)CC2CCCO2)CC1 (centres unmarked) [Compound D] | 33% | 33.8% | 33.4% | 29.3% | 28.4% | 28.8% | 23% | 21.5% | 22.2% | 15.8% | 15.9% | 15.9% | 11.5% | 14.2% | 12.8% | 8.3% | 10.3% | 9.3% | 9.9% | 12.1% | remaining activity at 50 µM (G9a; third data set of Table S2): 11%; IC50 (G9a): 10.5 nM |
